Test results reported in patent US4703048A, “Novel 1-benzhydryl-4-cinnamylpiperazine derivatives, and pharmaceutical compositions comprising said compounds as active ingredient for treating a cerebrovascular disease” (Kanebo Ltd., priority 1985, dated 1987).
Where a name gives a salt, the structure may show the parent alone.

Columns and labels:
vertebral blood flow [1] = assay: Activity of increasing cerebral blood flow (vertebral blood flow), intravenous administration in anesthetized dogs; type: in vivo; conditions: Canis lupus familiaris; 0.03 to 0.3 mg/kg intravenous, anesthetized mongrel dogs; calculated from the regression line; read-out: VBF-ED50 (dose which increased the cerebral blood flow by 50%)
vertebral blood flow [2] = assay: as above; type: in vivo; conditions: 0.3 mg/kg, injected into femoral vein, anesthetized mongrel dogs
Protocol: The activity of increasing cerebral blood flow was measured by using the amount of vertebral blood flow as an index. Mongrel dogs of either sex (body weight 11 to 14 kg; four per group) were anesthetized with sodium pentobarbital (30 mg/kg, by intravenous injection), and the right vertebral artery was isolated from the surrounding tissues. A flow probe was attached to it and led to an electromagnetic flow meter (MFV-2100 made by Nihon Kohden Co., Ltd.). The amount of blood flow was periodically measured [see Meth and Find Exptl Clin Pharmacol, 3 (6), 397 (1981)]. Each of the test compounds was dissolved in a 2% tartaric acid solution containing 20% dimethylacetamide, and injected into the right femoral vein.
Furthermore, each of the test compounds was administered in a dose of 0.3 mg/kg, and increases (%) in vertebral blood flow were determined 1, 5, 10 and 20 minutes after the administration.

in vivo = conditions: mouse, oral, ddY-strain male mice, fasted 24 hours, deaths during seven days, Weil method, read-out: Acute toxicity LD50
Protocol: ddY-strain male mice (body weight 18 to 22 g; five per group) were caused to fast 24 hours. Then, each of the test compounds was administered orally, and acute toxicity values (LD50) were determined.
Each of the compounds was dissolved or suspended in a 2% tartaric acid solution containing 20% of dimethylacetamide, and orally administered to the animals. From the number of animals which died during seven days, the LD50 values were calculated by using the Weil method.

vertebral blood flow [3] = assay: Activity to increase cerebral blood flow (vertebral blood flow), intraduodenal administration in dogs; type: in vivo; conditions: 1 mg/kg intraduodenal, mongrel dogs
Protocol: The activity of compound A of the invention to increase cerebral blood flow was examined by intraduodenal administration.
Compound A was dissolved in a 2% tartaric acid solution containing 20% dimethylacetamide, and administered intraduodenally to mongrel dogs of either sex (body weight 11-18 kg, five per group) in a dose of 1 mg/kg.
At 10, 30, 60, 120, 180 and 240 minutes after the administration, the increase (%) of vertebral blood flow was measured in the same way as in Test Example 1.

[4] = 10 minutes after administration
[5] = 20 minutes after administration

COc1ccc(C=CCN2CCN(C(c3ccc(F)cc3)c3ccc(F)cc3)CC2)c(OC)c1.O=C(O)/C=C/C(=O)O [C, 1-[Bis(4-fluorophenyl)methyl]-4-(2,4-dimethoxycinnamyl)piperazine fumarate]
ED50 (vertebral blood flow [1]): 0.08 mg/kg
Increase (%) in vertebral blood flow (mean ± standard error) (vertebral blood flow [2]; 1 minute after administration): 83 ± 12%
Increase (%) in vertebral blood flow (mean ± standard error) (vertebral blood flow [2]; 5 minutes after administration): 92 ± 10%
Increase (%) in vertebral blood flow (mean ± standard error) (vertebral blood flow [2]; [4]): 71 ± 7%
Increase (%) in vertebral blood flow (mean ± standard error) (vertebral blood flow [2]; [5]): 50 ± 7%
LD50 at 168 h (in vivo): 102 mg/kg

C(=Cc1ccccc1)CN1CCN(C(c2ccccc2)c2ccccc2)CC1 [Cinnarizine, reference compound]
Increase (%) in vertebral blood flow (mean ± standard error) (vertebral blood flow [2]; 1 minute after administration): 40 ± 10%
Increase (%) in vertebral blood flow (mean ± standard error) (vertebral blood flow [2]; 5 minutes after administration): 5 ± 4%
Increase (%) in vertebral blood flow (mean ± standard error) (vertebral blood flow [2]; [4]): 2 ± 2%
Increase (%) in vertebral blood flow (mean ± standard error) (vertebral blood flow [2]; [5]): 2 ± 4%

Fc1ccc(C(c2ccc(F)cc2)N2CCN(CC=Cc3ccccc3)CC2)cc1 [Flunarizine dihydrochloride, reference compound]
ED50 (vertebral blood flow [1]): > 0.3 mg/kg
Increase (%) in vertebral blood flow (mean ± standard error) (vertebral blood flow [2]; 1 minute after administration): 53 ± 20%
Increase (%) in vertebral blood flow (mean ± standard error) (vertebral blood flow [2]; 5 minutes after administration): 20 ± 12%
Increase (%) in vertebral blood flow (mean ± standard error) (vertebral blood flow [2]; [4]): 11 ± 7%
Increase (%) in vertebral blood flow (mean ± standard error) (vertebral blood flow [2]; [5]): 10 ± 6%

COc1ccc(C=CCN2CCN(C(c3ccccc3)c3ccccc3)CC2)c(OC)c1OC.Cl.Cl [B, 1-Benzhydryl-4-(2,3,4-trimethoxycinnamyl) piperazine dihydrochloride]
ED50 (vertebral blood flow [1]): 0.12 mg/kg
Increase (%) in vertebral blood flow (mean ± standard error) (vertebral blood flow [2]; 1 minute after administration): 76 ± 14%
Increase (%) in vertebral blood flow (mean ± standard error) (vertebral blood flow [2]; 5 minutes after administration): 58 ± 12%
Increase (%) in vertebral blood flow (mean ± standard error) (vertebral blood flow [2]; [4]): 41 ± 7%
Increase (%) in vertebral blood flow (mean ± standard error) (vertebral blood flow [2]; [5]): 26 ± 4%
LD50 at 168 h (in vivo): 841 mg/kg

COc1ccc(C=CCN2CCN(C(c3ccccc3)c3ccccc3)CC2)c(OC)c1.O=C(O)/C=C/C(=O)O [D, 1-Benzhydryl-4-(2,4-dimethoxycinnamyl) piperazine fumarate]
ED50 (vertebral blood flow [1]): 0.18 mg/kg
Increase (%) in vertebral blood flow (mean ± standard error) (vertebral blood flow [2]; 1 minute after administration): 66 ± 11%
Increase (%) in vertebral blood flow (mean ± standard error) (vertebral blood flow [2]; 5 minutes after administration): 51 ± 10%
Increase (%) in vertebral blood flow (mean ± standard error) (vertebral blood flow [2]; [4]): 27 ± 7%
Increase (%) in vertebral blood flow (mean ± standard error) (vertebral blood flow [2]; [5]): 18 ± 6%
LD50 at 168 h (in vivo): 773 mg/kg

COc1ccc(C=CCN2CCN(C(c3ccc(F)cc3)c3ccc(F)cc3)CC2)c(OC)c1OC.Cl.Cl [Compound A, 1-[Bis(4-fluorophenyl)methyl]-4-(2,3,4-trimethoxycinnamyl)piperazine dihydrochloride]
ED50 (vertebral blood flow [1]): 0.06 mg/kg
Increase (%) in vertebral blood flow (mean ± standard error) (vertebral blood flow [2]; 1 minute after administration): 107 ± 17%
Increase (%) in vertebral blood flow (mean ± standard error) (vertebral blood flow [2]; 5 minutes after administration): 137 ± 39%
Increase (%) in vertebral blood flow (mean ± standard error) (vertebral blood flow [2]; [4]): 134 ± 40%
Increase (%) in vertebral blood flow (mean ± standard error) (vertebral blood flow [2]; [5]): 120 ± 38%
Increase (%) of vertebral blood flow (mean ± standard error) (vertebral blood flow [3]; [4]): 6.2 ± 1.8%
Increase (%) of vertebral blood flow (mean ± standard error) (vertebral blood flow [3]; 30 minutes after administration): 51.0 ± 18.6%
Increase (%) of vertebral blood flow (mean ± standard error) (vertebral blood flow [3]; 60 minutes after administration): 149.3 ± 48.0%
Increase (%) of vertebral blood flow (mean ± standard error) (vertebral blood flow [3]; 120 minutes after administration): 150.9 ± 38.2%
Increase (%) of vertebral blood flow (mean ± standard error) (vertebral blood flow [3]; 180 minutes after administration): 98.8 ± 24.2%
Increase (%) of vertebral blood flow (mean ± standard error) (vertebral blood flow [3]; 240 minutes after administration): 55.1 ± 17.2%
LD50 at 168 h (in vivo): 185 mg/kg
